According to patent US20250382269A1 (CFD Research Corporation, priority 2019, published 2025):

How the values were obtained:
[1] = system: S. aureus cell wall synthesis; assay: Macromolecular synthesis assay (glucosamine incorporation into cell wall); assay type: cell-based; settings: dose-response, FIG. 2A-2B
[2] = system: branched chain amino acid synthesis pathway (ILVB); assay: RNA sequencing / transcriptomic and metabolic mechanism of action studies
[3] = system: HepaRG cells; assay: Cytotoxicity MTT assay in HepaRG cells; assay type: cell-based, human; settings: 48 h
Method: (§1) Additionally, the antimicrobial compounds were analyzed for cytotoxicity. […] We utilized the standard MTT assay (Promega CellTiter 96) and GraphPad Prism 7 software to determine EC50 values for each analogue. Briefly, 20,000 HepG2 cells in 200 μl of the ATCC recommended media were seeded in each well of a 96-well plate with a moisture barrier created in the outermost wells. The cells were allowed to attach overnight at 37° C., and then observed under phase contrast microscopy for proper morphological characteristics. If cells appeared healthy and attached, test compounds were added in 7 concentrations from […] (n=3) from freshly prepared DMSO stock plates. […] Once incubations were complete, the spectrophotometric absorbance of the samples was measured at a wavelength of 595 nm. […] For the HepaRG assay, NoSpin HepaRG™ cells (Lonza, cat #NSHPRG) were thawed and plated with 20,000 cells per well. They were allowed to attach for 4 h (optimal DME profile per Lonza's testing) before dosing following the identical protocol as above.

[4] = MIC with and without 2-ketobutyrate (synergy); assay type: cell-based
[5] = system: B. subtilis / cytotoxicity EC50; assay: Selectivity index (SI) using B. subtilis MICs
Method: as §1

[6] = system: Candida glabrata; assay: MIC/MFC against Candida glabrata strains; assay type: cell-based; settings: Nakaseomyces glabratus; #584

SMILES: Brc1ccc2[nH]cc(Sc3ccccc3Br)c2c1 [Compound 174I, 5-bromo-3-((2-bromophenyl)thio)-1H-indole]
- cell wall synthesis inhibition (glucosamine incorporation) [1]: substantial cell wall synthesis inhibition
- mechanism of action from transcriptomic and metabolic studies [2]: branched chain amino acid biosynthesis inhibition

SMILES: CN[C@H](CC(C)C)C(=O)N[C@H]1C(=O)N[C@@H](CC(N)=O)C(=O)N[C@H]2C(=O)N[C@H]3C(=O)N[C@H](C(=O)N[C@H](C(=O)O)c4cc(O)cc(O)c4-c4cc3ccc4O)[C@H](O)c3ccc(c(Cl)c3)Oc3cc2cc(c3O[C@@H]2O[C@H](CO)[C@@H](O)[C@H](O)[C@H]2O[C@H]2C[C@](C)(N)[C@H](O)[C@H](C)O2)Oc2ccc(cc2Cl)[C@H]1O [vancomycin, reference compound]
- cell wall synthesis inhibition (glucosamine incorporation) [1]: increasingly inhibits glucosamine from incorporating into a cell wall

SMILES: Brc1ccc(Sc2c[nH]c3ccccc23)cc1 [Compound 156K, 3-((4-bromophenyl)thio)-1H-indole]
- Cytotoxicity HepaRG EC50 [3]: 32 µg/mL

SMILES: Nc1ccccc1Sc1c[nH]c2ccc(Br)cc12 [Compound 174M, 2-((5-bromo-1H-indol-3-yl)thio)aniline]
- Cytotoxicity HepaRG EC50 [3]: 85 µg/mL
- MIC with 200 μg/mL 2-ketobutyrate ([4]; with 200 μg/mL 2-ketobutyrate): 0.781
- MIC with 800 μg/mL 2-ketobutyrate ([4]; with 800 μg/mL 2-ketobutyrate): less than 0.39
- mechanism of action from transcriptomic and metabolic studies [2]: branched chain amino acid biosynthesis inhibition

SMILES: Oc1ccc(Sc2c[nH]c3ccccc23)cc1 [Compound 156I, 4-((1H-indol-3-yl)thio)phenol]
- Cytotoxicity HepaRG EC50 [3]: >20 µg/mL

SMILES: Oc1ccccc1Sc1c[nH]c2ccc(C(F)(F)F)cc12 [Compound 177A, 2-((5-(trifluoromethyl)-1H-indol-3-yl)thio)phenol]
- SI (selectivity index) [5]: 61.8

SMILES: Clc1ccc(Sc2c[nH]c3ccc(Br)cc23)cc1 [Compound 174J, 5-bromo-3-((4-chlorophenyl)thio)-1H-indole]
- SI (selectivity index) [5]: 16.2

SMILES: Clc1c(Cl)c(Cl)c(Sc2c[nH]c3ccc(Br)cc23)c(Cl)c1Cl [Compound 174AD, 5-bromo-3-((perchlorophenyl)thio)-1H-indole]
- MIC [6]: > 50 µg/mL

SMILES: Clc1ccc2[nH]cc(Sc3ccc(Br)cc3)c2c1 [Compound 174C, 3-((4-bromophenyl)thio)-5-chloro-1H-indole]
- SI (selectivity index) [5]: 16.3

SMILES: Fc1ccc2[nH]cc(Sc3ccccc3Br)c2c1 [Compound 177E, 3-((2-bromophenyl)thio)-5-fluoro-1H-indole]
- SI (selectivity index) [5]: 20.3

SMILES: Oc1ccc(Sc2c[nH]c3ccc(C(F)(F)F)cc23)cc1 [Compound 177B, 4-((5-(trifluoromethyl)-1H-indol-3-yl)thio)phenol]
- SI (selectivity index) [5]: 17.8

SMILES: OCc1[nH]c2ccc(Br)cc2c1Sc1ccccc1Br [Compound 177H, (5-bromo-3-((2-bromophenyl)thio)-1H-indol-2-yl)methanol]
- SI (selectivity index) [5]: 20.4

SMILES: CCc1ccccc1Sc1c(CO)[nH]c2ccc(C(F)(F)F)cc12 [Compound 177I, (3-((2-ethylphenyl)thio)-5-(trifluoromethyl)-1H-indol-2-yl)methanol]
- SI (selectivity index) [5]: 10.0
